Key:
Type in all cases: physicochemical
[1] = Bulk density according to USP 24, method I; conditions: trihydrate
From the text: Preferably, the crystalline powder according to the invention has a bulk density higher than 0.46 g/ml, preferably higher than 0.5 g/ml, more preferably higher than 0.55 g/ml. This further improves the flow properties. Moreover, an increased bulk density is advantageous as crystalline powder may be fed into a certain volume, for instance a capsule. There is no specific upper limit for the bulk density. The bulk density may be less than 0.8 g/ml, for instance less than 0.7 g/ml. The bulk density is preferably determined according to USP 24, method I, (page 1913).
The bulk density was determined according to USP 24, method I, (page 1913).

[2] = Particle size distribution (d10, d50) by laser diffraction, Malvern particle sizer 2600 C; conditions: dry powder, f=300 mm, trihydrate
From the text: The d10 and d50 are known ways for indicating a particle size distribution, d50 referring to the value for the particle size such that 50 vol. % of the particles has a particle size smaller than said value. The d50 is also referred to as average volume-based grain size. Likewise, d10 refers to the value for the particle size such that 10 vol. % of the particles has a particle size smaller than said value. A preferred way for determining d10 and d50 is laser diffraction, preferably using Malvern equipment. A suitable apparatus for determining d10 and d50 is a Malvern particle sizer 2600 C obtainable from Malvern Instruments Ltd., Malvern UK, for instance using an objective of f=300 mm and a beam length of 14.30 mm. A polydisperse analysis model may advantageously be used.
The particle size distribution (including d10 and d50) of samples from the mixer was determined using a Malvern particle sizer 2600 C with objective f=300 mm, malvern sample measurement unit PS1 and a Malvern dry powder feeder PS 64. The beam length was 14.30 mm. A polydisperse analysis model was used.

[3] = Tapped density according to USP 24, method II; conditions: trihydrate; for Tap. dens. (dt): USP 24, method II; for db*(1/db − 1/dt)*100%: compressibility index from bulk and tapped density
[4] = Dissolution test of capsules, USP 27 amoxicillin capsules, apparatus 1; conditions: 500 mg (anhydrous basis) in gelatine capsule size 0, 900 ml water, 37° C., 100 rpm
Procedure: In one aspect of the invention, the crystalline powder according to the invention has a high dissolution rate. Preferably, the crystalline powder according to the invention has a T85% of less than 55 minutes, preferably less than 50 minutes, preferably less than 40 minutes, preferably less than 30 minutes, preferably less than 25 minutes, preferably less than 20 minutes. T85% may for instance be above 5 minutes. […] The determination of T85% is preferably carried out under conditions as defined in USP 27, chapter “amoxicillin capsules”, involving the use of apparatus 1 and applying a stirring rate of 100 rpm (USP 27, paragraph 711). Preferably, samples are taken at regular intervals, e.g. each 5 minutes, to determine the quantity of dissolved amoxicillin by UV absorption.
No auxiliaries were added. Dissolution tests were applied using apparatus 1 under the conditions as described in USP 27 under paragraph “amoxicillin capsules”, including a stirring rate of 100 rpm and a temperature of 37° C. Six beakers each containing 900 ml of water were used. Samples were taken each 5 minutes, and the quantity of dissolved amoxicillin were determined employing UV absorption at the wavelength of maximum absorbance at 272 nm. • 84 wt. % of the amoxicillin was dissolved in 15 minutes. • 90 wt. % of the amoxicillin was dissolved in 20 minutes.

Flow through Klein cup = conditions: Klein cup 8 mm; overheads fraction after air jet sieving 75 μm
Procedure: The powder of example V was subjected to air jet sieving (200 LS-N air jet sieve manufactured by Hosakawa Alpine). Sieving was carried out using a 75 μm screen during 10 minutes. A few agglomerates formed during said sieving were removed from the overheads fraction (not passed through the sieve) tusing a vibrating sieve (425 μm), after which tapped density, bulk density, d50, d10 of the resulting crystals of the overheads fraction was determined.

Bulk dens. (db) [1] [g/mL] | d10 [2] [μm] | d50 [2] [μm] | Tap. dens. (dt) [3] [g/mL] | db*(1/db − 1/dt)*100% [3] [%] | amoxicillin dissolved ([4]; in 15 minutes) [wt. %] | amoxicillin dissolved ([4]; in 20 minutes) [wt. %] | flow through Klein cup (Flow through Klein cup) | Compound
0.26 | 4.0 | 17 | 0.55 | 53 | – | – | – | CC1(C)S[C@@H]2[C@H](NC(=O)[C@H](N)c3ccc(O)cc3)C(=O)N2[C@H]1C(=O)O.O.O.O [Comp. A, amoxicillin trihydrate, reference compound]
0.51 | – | – | 0.73 | 30 | – | – | – | CC1(C)S[C@@H]2[C@H](NC(=O)[C@H](N)c3ccc(O)cc3)C(=O)N2[C@H]1C(=O)O.O.O.O [Ex. I, amoxicillin trihydrate]
0.56 | 8.8 | 42.8 | 0.78 | 28 | – | – | – | CC1(C)S[C@@H]2[C@H](NC(=O)[C@H](N)c3ccc(O)cc3)C(=O)N2[C@H]1C(=O)O.O.O.O [Ex. II, amoxicillin trihydrate]
0.56 | 9.9 | 47.8 | 0.81 | 31 | – | – | – | CC1(C)S[C@@H]2[C@H](NC(=O)[C@H](N)c3ccc(O)cc3)C(=O)N2[C@H]1C(=O)O.O.O.O [Ex. III, amoxicillin trihydrate]
0.54 | 7.0 | 37.0 | 0.81 | 33 | 84 | 90 | – | CC1(C)S[C@@H]2[C@H](NC(=O)[C@H](N)c3ccc(O)cc3)C(=O)N2[C@H]1C(=O)O.O.O.O [Ex. IV, amoxicillin trihydrate]
0.58 | 19 | 61 | 0.79 | 26 | – | – | – | CC1(C)S[C@@H]2[C@H](NC(=O)[C@H](N)c3ccc(O)cc3)C(=O)N2[C@H]1C(=O)O.O.O.O [Ex. V, amoxicillin trihydrate]
0.59 | 36 | 86 | 0.74 | 20 | – | – | flows through Klein cup 8 mm | CC1(C)S[C@@H]2[C@H](NC(=O)[C@H](N)c3ccc(O)cc3)C(=O)N2[C@H]1C(=O)O.O.O.O [Ex. VI, amoxicillin trihydrate]
0.26 | – | – | 0.47 | 45 | – | – | – | CC1(C)S[C@@H]2[C@H](NC(=O)[C@H](N)c3ccc(O)cc3)C(=O)N2[C@H]1C(=O)O.O.O.O [Ref. B, amoxicillin trihydrate, reference compound]
